Measured values published in article PMC2826609 (Peptides, 2009).
Positions of bridges follow the written chain, without caps; N, C: chain ends. Residues, ends and D or L forms follow the SMILES beside them.

Assays:
[1] = target: Aedes aegypti allatostatin-C receptor AeAS-CrA (Aedes aegypti, UniProt A0A411JKC3); assay type: cell-based
[2] = target: Aedes aegypti allatostatin-C receptor AeAS-CrB (Aedes aegypti, UniProt A0A411JKA7); assay type: cell-based

| Compound | EC50 [1] [nM] | EC50 [2] [nM] | FLIPR signal, peptide selectivity (AeAS-CrA) ([1]; AeAS-CrA, HEK293T/Gα16gust44 cells, results not shown) | FLIPR signal, peptide selectivity (AeAS-CrB) ([2]; AeAS-CrB, HEK293T/Gα16gust44 cells, results not shown) |
| --- | --- | --- | --- | --- |
| CC[C@H](C)[C@H](NC(=O)[C@@H](N)CCC(N)=O)C(=O)N[C@@H](CCCNC(=N)N)C(=O)N[C@@H](Cc1ccc(O)cc1)C(=O)N[C@@H](CCCNC(=N)N)C(=O)N[C@@H](CCC(N)=O)C(=O)N[C@H]1CSSC[C@@H](C(=O)N[C@@H](Cc2ccccc2)C(=O)O)NC(=O)[C@H](CO)NC(=O)[C@H]([C@@H](C)CC)NC(=O)[C@@H]2CCCN2C(=O)[C@H](CC(N)=O)NC(=O)[C@H](Cc2ccccc2)NC(=O)[C@H](Cc2ccc(O)cc2)NC1=O [AS-C] (H-QIRYRQCYFNPISCF-OH; disulfide 7-14) | 89 ± 18.5 | 27.7 ± 7.2 |  |  |
| APFRNSEMMTARGF [AT] |  |  | no signal was detected | no signal was detected |
